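Results reflect a 48-hour exposure of cells in 96-well plates to compound at five concentrations. The concentration for 50% growth inhibition is given as GI50. At the TGI there is no net growth.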
Legend:
Assay in all cases: inhibition of tumour cell growth, NCI panel, 48 h
[1] = system: 786-0 renal
[2] = system: A498 renal
[3] = system: A549 NSCLC
[4] = system: ACHN renal
[5] = system: BT-549 breast
[6] = system: CAKI-1 renal
[7] = system: CCRF-CEM leukemia
[8] = system: COLO 205 colon
[9] = system: DU-145 prostate
[10] = system: EKVX NSCLC
[11] = system: HCC-2998 colon
[12] = system: HCT-116 colon
[13] = system: HCT-15 colon
[14] = system: HL-60(TB) leukemia
[15] = system: HOP-62 NSCLC
[16] = system: HOP-92 NSCLC
[17] = system: HS 578T breast
[18] = system: HT29 colon
[19] = system: IGROV1 ovarian
[20] = system: K-562 leukemia
[21] = system: KM12 colon
[22] = system: LOX IMVI melanoma
[23] = system: M14 melanoma
[24] = system: MALME-3M melanoma
[25] = system: MCF7 breast
[26] = system: MDA-MB-231 breast
[27] = system: MDA-MB-435
[28] = system: MOLT-4 leukemia
[29] = system: NCI-H226 lung
[30] = system: NCI-H23 lung
[31] = system: NCI-H460 lung
[32] = system: NCI-H522 lung
[33] = system: NCI/ADR-RES ovarian
[34] = system: OVCAR-4 ovarian
[35] = system: OVCAR-5 ovarian
[36] = system: OVCAR-8 ovarian
[37] = system: PC-3 prostate
[38] = system: RPMI-8226 leukemia
[39] = system: RXF 393 renal
[40] = system: SF-268 CNS
[41] = system: SF-295 CNS
[42] = system: SF-539 CNS
[43] = system: SK-MEL-28 melanoma
[44] = system: SK-MEL-5 melanoma
[45] = system: SK-OV-3 ovarian
[46] = system: SN12C renal
[47] = system: SNB-19 CNS
[48] = system: SNB-75 CNS
[49] = system: SR leukemia
[50] = system: SW-620 colon
[51] = system: T-47D breast
[52] = system: TK-10 renal
[53] = system: U251 CNS
[54] = system: UACC-257 melanoma
[55] = system: UACC-62 melanoma
[56] = system: UO-31 renal

With C#C[C@]1(O)CC[C@H]2[C@@H]3CC=C4c5sc(NCc6ccccc6)nc5CC[C@]4(C)[C@H]3CC[C@@]21C as the compound, how does the GI50 [1] read?
Its GI50 is 1.73 µM.

What about the TGI [1] of the same compound?
Its TGI is 3.47 µM.

What about the GI50 [2] of the same compound?
The GI50 was 1.72 µM.

What about the TGI [2] of the same compound?
Its TGI is 4.24 µM.

What about the GI50 [3] of the same compound?
Its GI50 is 3.48 µM.

What about the TGI [3] of the same compound?
The TGI was 13.1 µM.

What about the GI50 [4] of the same compound?
Its GI50 is 3.92 µM.

And the TGI [4]?
Its TGI is 15.9 µM.

What about the GI50 [5] of the same compound?
The GI50 was 2.82 µM.

What about the TGI [5] of the same compound?
Its TGI is 7.27 µM.

And the GI50 [6]?
The GI50 was 2.59 µM.

And the TGI [6]?
The TGI was 8.04 µM.

What about the GI50 [7] of the same compound?
Its GI50 is 2.94 µM.

And the TGI [7]?
The TGI was 9.49 µM.

What about the GI50 [8] of the same compound?
Its GI50 is 1.92 µM.

What about the TGI [8] of the same compound?
Its TGI is 3.62 µM.

And the GI50 [9]?
Its GI50 is 7.54 µM.

What about the TGI [9] of the same compound?
The TGI was 40.5 µM.

And the GI50 [10]?
Its GI50 is 4.16 µM.

What about the TGI [10] of the same compound?
Its TGI is 16.3 µM.

And the GI50 [11]?
Its GI50 is 4.05 µM.

And the TGI [11]?
Its TGI is 14.1 µM.

And the GI50 [12]?
Its GI50 is 3.37 µM.

What about the TGI [12] of the same compound?
The TGI was 11.5 µM.

What about the GI50 [13] of the same compound?
The GI50 was 1.7 µM.

What about the TGI [13] of the same compound?
Its TGI is 4.15 µM.

And the GI50 [14]?
Its GI50 is 3.01 µM.

And the TGI [14]?
Its TGI is 9.19 µM.

What about the GI50 [15] of the same compound?
The GI50 was 2.05 µM.

And the TGI [15]?
The TGI was 4.94 µM.

What about the GI50 [16] of the same compound?
The GI50 was 1.56 µM.

And the TGI [16]?
Its TGI is 7.34 µM.

What about the GI50 [17] of the same compound?
Its GI50 is 2.02 µM.

What about the TGI [17] of the same compound?
Its TGI is 6.42 µM.

What about the GI50 [18] of the same compound?
The GI50 was 1.68 µM.

What about the TGI [18] of the same compound?
Its TGI is 3.54 µM.

And the GI50 [19]?
The GI50 was 5.83 µM.

What about the TGI [19] of the same compound?
Its TGI is 23.3 µM.

And the GI50 [20]?
Its GI50 is 3.23 µM.

What about the TGI [20] of the same compound?
Its TGI is greater than 100 µM.

And the GI50 [21]?
Its GI50 is 3.18 µM.

What about the TGI [21] of the same compound?
Its TGI is 10.8 µM.

What about the GI50 [22] of the same compound?
Its GI50 is 2.19 µM.

And the TGI [22]?
Its TGI is 4.93 µM.

What about the GI50 [23] of the same compound?
Its GI50 is 2.94 µM.

And the TGI [23]?
Its TGI is 10.1 µM.

And the GI50 [24]?
The GI50 was 2.14 µM.

What about the TGI [24] of the same compound?
The TGI was 5.38 µM.

And the GI50 [25]?
The GI50 was 3.31 µM.

What about the TGI [25] of the same compound?
The TGI was 10 µM.

What about the GI50 [26] of the same compound?
Its GI50 is 2.64 µM.

What about the TGI [26] of the same compound?
Its TGI is 7.07 µM.

And the GI50 [27]?
Its GI50 is 3.73 µM.

What about the TGI [27] of the same compound?
Its TGI is 18.7 µM.

And the GI50 [28]?
Its GI50 is 2.66 µM.

And the TGI [28]?
The TGI was 8.69 µM.

And the GI50 [29]?
The GI50 was 11.3 µM.

What about the TGI [29] of the same compound?
Its TGI is 37.1 µM.

What about the GI50 [30] of the same compound?
The GI50 was 4.4 µM.

And the TGI [30]?
Its TGI is 20.8 µM.

What about the GI50 [31] of the same compound?
The GI50 was 4.66 µM.

And the TGI [31]?
The TGI was 16.6 µM.

And the GI50 [32]?
The GI50 was 2.62 µM.

What about the TGI [32] of the same compound?
Its TGI is 8.35 µM.

And the GI50 [33]?
The GI50 was 3.87 µM.

And the TGI [33]?
Its TGI is 43.9 µM.

What about the GI50 [34] of the same compound?
Its GI50 is 8.48 µM.

And the TGI [34]?
Its TGI is 32.9 µM.

And the GI50 [35]?
The GI50 was 4.55 µM.

And the TGI [35]?
The TGI was 17.6 µM.

And the GI50 [36]?
The GI50 was 3.78 µM.

What about the TGI [36] of the same compound?
The TGI was 14.4 µM.

And the GI50 [37]?
The GI50 was 2.29 µM.

And the TGI [37]?
The TGI was 6.77 µM.

What about the GI50 [38] of the same compound?
Its GI50 is 1.65 µM.

And the TGI [38]?
Its TGI is 4.53 µM.

What about the GI50 [39] of the same compound?
Its GI50 is 1.23 µM.

What about the TGI [39] of the same compound?
Its TGI is 3.17 µM.

And the GI50 [40]?
Its GI50 is 3.85 µM.

What about the TGI [40] of the same compound?
The TGI was 16.4 µM.

And the GI50 [41]?
The GI50 was 1.94 µM.

What about the TGI [41] of the same compound?
The TGI was 4.08 µM.

And the GI50 [42]?
The GI50 was 1.4 µM.

What about the TGI [42] of the same compound?
Its TGI is 3.18 µM.

And the GI50 [43]?
Its GI50 is 2.31 µM.

And the TGI [43]?
Its TGI is 7.2 µM.

And the GI50 [44]?
The GI50 was 2.91 µM.

What about the TGI [44] of the same compound?
The TGI was 8.8 µM.

What about the GI50 [45] of the same compound?
The GI50 was 2.08 µM.

What about the TGI [45] of the same compound?
Its TGI is 4.41 µM.

And the GI50 [46]?
The GI50 was 3.52 µM.

What about the TGI [46] of the same compound?
Its TGI is 16.7 µM.

What about the GI50 [47] of the same compound?
The GI50 was 4.01 µM.

And the TGI [47]?
Its TGI is 18 µM.

What about the GI50 [48] of the same compound?
Its GI50 is 1.89 µM.

What about the GI50 [49] of the same compound?
Its GI50 is 3.16 µM.

And the TGI [49]?
Its TGI is 29.6 µM.

And the GI50 [50]?
Its GI50 is 2.22 µM.

What about the TGI [50] of the same compound?
The TGI was 4.68 µM.

And the GI50 [51]?
Its GI50 is 2.76 µM.

What about the TGI [51] of the same compound?
Its TGI is 16.6 µM.

What about the GI50 [52] of the same compound?
The GI50 was 5.48 µM.

And the TGI [52]?
The TGI was 18.5 µM.

And the GI50 [53]?
Its GI50 is 1.8 µM.

And the TGI [53]?
The TGI was 5.8 µM.

What about the GI50 [54] of the same compound?
The GI50 was 1.82 µM.

What about the TGI [54] of the same compound?
Its TGI is 3.72 µM.

What about the GI50 [55] of the same compound?
Its GI50 is 1.97 µM.

What about the TGI [55] of the same compound?
The TGI was 4.49 µM.

And the GI50 [56]?
The GI50 was 2.21 µM.

And the TGI [56]?
The TGI was 5.41 µM.

Source: PubChem BioAssay (NCI)
